Data set [1] deals with T1, human 5-HT2B receptor (Homo sapiens, UniProt P41595).
T1 construct: host or cells: CHO-K1
Kind of data set: Aequorin assay, agonist activity at the 5-HT2B receptor. Format: cell-based. The method, then: Percentage activation values were determined for 2-CF3 dihydroergotamine at the 5-HT2B receptor.

Data set [2] deals with T1, human 5-HT2B receptor. Briefly: Aequorin assay, competitive antagonist activity at the 5-HT2B receptor. Format: cell-based. As to the method: Percentage inhibition values were determined for 2-CF3 dihydroergotamine on the 5-HT2B receptor.
The nature of data set [3]: Metabolism in human liver microsomes. The following applies: 1 μM, 37° C., 0-60 min; for metabolism by human liver microsomes in the presence of NADPH: 0.2 mg protein/mL. As to the method:
Metabolism of dihydroergotamine (DHE) and 2-CF3 DHE was evaluated in human liver microsomes. DHE mesylate and 2-CF3 DHE mesylate (1 μM each) were incubated separately with human liver microsomes (0.2 mg protein/mL) in triplicate at 37° C. in 0.2 mL (final volume) incubation buffer (50 mM potassium phosphate buffer, pH 7.4, 3 mM MgCl2 and 1 mM EDTA, pH 7.4) with or without cofactor, NADPH-generating system. The NADPH-generating system consisted of 1 mM NADPH, pH 7.4, 5 mM glucose-6-phosphate, pH 7.4 and 1 unit/mL glucose-6-phosphate dehydrogenase. DHE was added to the incubation mixtures in water. 2-CF3-DHE was added to incubation mixtures in 50:50 (v:v) acetonitrile:water. A low level of acetonitrile in the incubation was maintained to avoid any solvent effects on enzyme activity (typically at 0.5% or lower). Reactions were initiated by the addition of the NADPH-generating system and were terminated at 0, 15, 30 and 60 minutes after initiation by the addition of 175 μL of stop reagent (acetonitrile) containing two internal standards (4′-hydroxydiclofenac-d4 and 1′-hydroxymidazolam-d4, 200 and 50 ng/mL in the final stopped incubation, respectively). The samples were then centrifuged and the supernatant fractions were analyzed by LC/MS/MS to quantify the formation of 8′-OH-DHE (metabolite) in the DHE samples and DHE and 8′-OH-DHE in the 2-CF3-DHE samples.

The next data set concerns Salmonella typhimurium. Kind of data set: Genotoxicity study, reversion of histidine-requiring Salmonella typhimurium strains. Format: cell-based. The note with it: five histidine-requiring strains, absence and presence of a rat liver metabolizing system; Dunnett's test, 1% level. As to the method: Genotoxicity studies were performed to evaluate the potential mutagenic activity of 2-CF3-DHE. Studies were performed to examine the ability of 2-CF3-DHE to revert five histidine-requiring strains of Salmonella typhimurium in the absence and presence of a rat liver metabolizing system. […] This is consistent with the conclusion that there was no evidence of any mutagenic activity observed with 2-CF3-DHE.

The test system of a further data set is human coronary arteries. Briefly: Constriction assay, human coronary arteries. The following applies: CCRC 100 pM to 10 μM in half-log steps, n=6. As to the method: (§1) Human coronary arteries and saphenous veins were set up under isometric conditions on either small vessel wire myographs or organ baths, depending on vessel size, in order to examine the influence of the test article on the relative changes in tension. In order to assess tissue viability, the vessel segments were constricted with a high potassium solution (KPSS, 62.5 mM) three times. Vessels were then pre-constricted with sumatriptan (1 μM) and endothelium-dependent vasorelaxation investigated using bradykinin (10 μM). […] All vessels were fully relaxed at the end of the experiment using forskolin (10 μM).
(§2) Coronary arteries and small saphenous veins, having been cut into ring segments of approximately 2 mm length, were attached by 40 μm diameter wire running through the lumen of the vessel to stainless steel heads in 5 mL myograph baths containing PSS (physiological saline solution), aerated with 95% 02 and 5% CO2 and maintained at a temperature of 37° C. Changes in tension were recorded using a Danish Myotech isometric transducer. The vessel segments were allowed to equilibrate for at least 30 minutes after set up. Segments were processed through a standardization procedure of tension application, which reduces signal variability and allows for optimal tissue response to be obtained prior the pharmacological intervention. […]

Another data set deals with human saphenous veins. Briefly: Constriction assay, human saphenous veins. The following applies: CCRC 100 pM to 10 μM, 6 donors. As to the method: as §1, §2

Entries after “also recorded” stand apart in the source; their conditions may differ.

T1 sequence (P41595 whole entry): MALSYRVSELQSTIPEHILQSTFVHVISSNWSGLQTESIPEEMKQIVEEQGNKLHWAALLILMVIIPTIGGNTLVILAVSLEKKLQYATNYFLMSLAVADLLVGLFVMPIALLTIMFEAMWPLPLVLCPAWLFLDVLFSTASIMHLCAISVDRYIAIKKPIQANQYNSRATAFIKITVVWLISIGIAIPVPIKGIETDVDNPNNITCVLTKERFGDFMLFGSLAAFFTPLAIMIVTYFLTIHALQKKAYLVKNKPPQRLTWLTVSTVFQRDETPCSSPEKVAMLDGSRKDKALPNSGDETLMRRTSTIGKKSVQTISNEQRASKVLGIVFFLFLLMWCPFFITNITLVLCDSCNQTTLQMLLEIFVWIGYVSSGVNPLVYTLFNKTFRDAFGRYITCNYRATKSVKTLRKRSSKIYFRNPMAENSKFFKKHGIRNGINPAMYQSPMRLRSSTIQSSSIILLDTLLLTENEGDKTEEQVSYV

For `CN1C[C@H](C(=O)N[C@]2(C)O[C@@]3(O)C4CCCN4C(=O)[C@H](Cc4ccccc4)N3C2=O)CC2c3cccc4[nH]c(C(F)(F)F)c(c34)CC21` (stereo partly drawn) [2-CF3-dihydroergotamine], at human 5-HT2B receptor [1] (0.01 nM to 20,000 nM, compared with Emax of α-methyl-5-HT), the “agonist activity at the 5-HT2B receptor” value is recorded as “no agonist activity; also recorded: little agonist activity”. The “antagonism of the 5-HT2B receptor” value on human 5-HT2B receptor [2] (FIG. 2) was “potent antagonism”.
As to `CN1C[C@H](C(=O)N[C@]2(C)O[C@@]3(O)[C@@H]4CCCN4C(=O)[C@H](Cc4ccccc4)N3C2=O)CC2c3cccc4[nH]c(C(F)(F)F)c(c34)CC21` (stereo partly drawn) [2-CF3-dihydroergotamine], in data set [3] (listed as 2-CF3-DHE), the “metabolism by human liver microsomes in the presence of NADPH” value is on record as “extensively metabolized”. Further, the “intrinsic clearance, slower than that of DHE” value in data set [3] (human liver microsomes 0.2 mg protein/mL, with NADPH) is given as “about 85%”. Besides, the “mutagenic activity, revertant numbers” value in the data set on Salmonella typhimurium is recorded as “no statistically significant increases in the revertant numbers”. Further, in the data set with human coronary arteries (listed as 2-CF3-DHE), the “change in tension, coronary arteries” value was “only a very slight mean increase in tension; also recorded: slight mean increase in tension”. Also, the “change in tension, saphenous veins” value with human saphenous veins was “no change in tension”.
By IC50 is commonly meant the point on the concentration scale where inhibition reaches its midpoint. As for `Cc1cc(NC(=O)Nc2ccc3c(ccn3C)c2)sn1` [SB204741, reference compound], at human 5-HT2B receptor [2] (CHO-K1 cells, reference agonist at its EC50, 0.005 nM to 10,000 nM, read-out: IC50, antagonism of the 5-HT2B receptor), the IC50 is 28.8 nM.
With `CN1C[C@H](C(=O)N[C@]2(C)O[C@@]3(O)[C@@H]4CCCN4C(=O)[C@H](Cc4ccccc4)N3C2=O)C[C@@H]2c3cccc4[nH]cc(c34)C[C@H]21` [dihydroergotamine, reference compound], in data set [3] (listed as DHE), the “metabolism by human liver microsomes in the presence of NADPH” value is given as “extensively metabolized”.
For orientation: EC50 means the concentration at which the effect is half-maximal. Regarding `CNS(=O)(=O)Cc1ccc2[nH]cc(CCN(C)C)c2c1` [sumatriptan, reference compound], the half-maximal effective concentration (EC50) in the data set with human coronary arteries (Homo sapiens, read-out: EC50, constriction curve, coronary arteries) came to 112 nM; in the data set with human saphenous veins (Homo sapiens, read-out: EC50, constriction curve, saphenous veins), 187 nM.
Regarding `CC(N)Cc1c[nH]c2ccc(O)cc12` (stereo not drawn) [α-methyl-5-HT, reference compound], on human 5-HT2B receptor [1] (CHO-K1 cells coexpressing apoaequorin and recombinant human 5-HT2B, reference agonist, read-out: EC50, agonism of the 5-HT2B receptor), the EC50 is 1.01 nM.

The record behind these values is patent US9365591B2, “Fluoroergoline analogs” (MAP Pharmaceuticals, Inc., priority 2011, dated 2016).
